Data published in the NIST ThermoML archive (doi:10.1016/j.tca.2014.02.019).
Where “and” joins values, the source holds several entries; their conditions need not be identical. Identical values can stand only once.

How the values were obtained:
[1] = for viscosity / mass density: 101 kPa, Liquid; for viscosity: Falling or rolling sphere viscometry; for mass density: Vibrating tube method
[2] = xn = mol fraction of the nth substance listed; settings: 101 kPa, Liquid, x2 = 0; for viscosity: Falling or rolling sphere viscometry; for mass density: Vibrating tube method

CCOS(=O)(=O)[O-].CC[N+]1(C)CCCCC1 [1-ethyl-1-methylpiperidinium ethyl sulfate]
[1]
Settings | mass density [kg/m3] | viscosity [mPa·s]
298.15 K | 1181.33 | 1821
303.15 K | 1178.23 | 1186
308.15 K | 1175.1 | 795.7
313.15 K | 1171.79 | 549.9
318.15 K | 1168.85 | 391.8
323.15 K | 1165.73 | 285.8
328.15 K | 1162.62 | 212.6
333.15 K | 1159.54 | 162.5
338.15 K | 1156.56 | 126.1
343.15 K | 1153.58 | 99.87

CCOS(=O)(=O)[O-].CC[N+]1(C)CCCC1 [1-ethyl-1-methylpyrrolidinium ethyl sulfate]
[1]
Settings | mass density [kg/m3] | viscosity [mPa·s]
313.15 K | 1176.31 | 78.32
318.15 K | 1173.63 | 64.72
323.15 K | 1170.95 | 53.51
328.15 K | 1168.27 | 44.82
333.15 K | 1165.59 | 37.95
338.15 K | 1162.91 | 32.87
343.15 K | 1160.23 | 29.23

Settings | Normal melting temperature [°C]
[1], Crystal, visual observation | 36.92

CCOS(=O)(=O)[O-].CC[N+]1(C)CCOCC1 [4-ethyl-4-methylmorpholinium ethyl sulfate]
[1]
Settings | mass density [kg/m3] | viscosity [mPa·s]
298.15 K | 1252.26 | –
303.15 K | 1249.05 | –
308.15 K | 1245.86 | –
313.15 K | 1242.67 | 2426
318.15 K | 1239.51 | 1677
323.15 K | 1236.35 | 1129
328.15 K | 1233.2 | 779.3
333.15 K | 1230.06 | 552.3
338.15 K | 1226.93 | 400.8
343.15 K | 1223.81 | 297.3

O [water]
[1]
Settings | mass density [kg/m3] | viscosity
298.15 K | – | 0.89 mPa·s
303.15 K | – | 0.808 mPa·s
308.15 K | – | 0.74 mPa·s
313.15 K | 992.15 | 0.681 mPa·s
318.15 K | – | 0.63 mPa·s
323.15 K | 987.93 | 0.593 mPa·s
328.15 K | 985.69 | 0.56 mPa·s
333.15 K | 983.17 | 0.528 mPa·s
338.15 K | 980.3 | 0.519 mPa·s and 0.5 mPa·s
343.15 K | 978.1 | 0.51 mPa·s and 0.473 mPa·s

O [water] + CCOS(=O)(=O)[O-].CC[N+]1(C)CCCC1
[2]
Settings | mass density [kg/m3] | viscosity [mPa·s]
313.15 K | 992.15 | 0.681
318.15 K | – | 0.63
323.15 K | 987.93 | 0.593
328.15 K | 985.69 | 0.56
333.15 K | 983.17 | 0.528
338.15 K | 980.3 | 0.519
343.15 K | 978.1 | 0.51

O [water] + CCOS(=O)(=O)[O-].CC[N+]1(C)CCCCC1
[2]
Settings | mass density [kg/m3] | viscosity [mPa·s]
298.15 K | – | 0.89
303.15 K | – | 0.808
308.15 K | – | 0.74
313.15 K | 992.15 | 0.681
318.15 K | – | 0.63
323.15 K | 987.93 | 0.593
328.15 K | 985.69 | 0.56
333.15 K | 983.17 | 0.528
338.15 K | 980.3 | 0.5
343.15 K | 978.1 | 0.473

O [water] + CCOS(=O)(=O)[O-].CC[N+]1(C)CCOCC1
[2]
Settings | mass density [kg/m3] | viscosity [mPa·s]
298.15 K | – | 0.89
303.15 K | – | 0.808
308.15 K | – | 0.74
313.15 K | 992.15 | 0.681
318.15 K | – | 0.63
323.15 K | 987.93 | 0.593
328.15 K | 985.69 | 0.56
333.15 K | 983.17 | 0.528
338.15 K | 980.3 | 0.5
343.15 K | 978.1 | 0.473
